Laboratory results taken from patent US7858624B2, “Piperidine and morpholine renin inhibitors” (Vitae Pharmaceuticals, Inc., priority 2006, dated 2010).

Target: T1, trypsin-activated recombinant human renin (Homo sapiens, UniProt P00797)
T1 sequence (P00797 67-406): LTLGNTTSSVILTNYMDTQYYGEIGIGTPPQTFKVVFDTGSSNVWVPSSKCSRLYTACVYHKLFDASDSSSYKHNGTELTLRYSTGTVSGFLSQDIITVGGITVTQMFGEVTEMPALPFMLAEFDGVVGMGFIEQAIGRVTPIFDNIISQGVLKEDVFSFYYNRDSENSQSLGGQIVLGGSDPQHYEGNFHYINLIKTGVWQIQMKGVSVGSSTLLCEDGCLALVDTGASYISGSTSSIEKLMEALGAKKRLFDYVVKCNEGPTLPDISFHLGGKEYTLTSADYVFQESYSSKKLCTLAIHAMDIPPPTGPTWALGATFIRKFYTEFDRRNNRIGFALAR
Assay: In vitro IC50 for renin, fluorescence increase of internally quenched peptide substrate (protocol of Example 2)
Assay type: biochemical
Details: protocol described in Example 2; DABCYL/EDANS peptide substrate, pH 7.0, rt
Description: The sequence of this peptide corresponds to the sequence of human angiotensinogen. The following test protocol is used: All reactions are carried out in a flat bottom white opaque microtiter plate. A 4 μL aliquot of 400 μM renin substrate (DABCYL-γ-Abu-Ile-His-Pro-Phe-His-Leu-Val-Ile-His-Thr-EDANS) in 192 μL assay buffer (50 mM BES, 150 mM NaCl, 0.25 mg/mL bovine serum albumin, pH7.0) is added to 4 μL of test compound in DMSO at various concentrations ranging from 10 μM to 1 nM final concentrations. Next, 100 μL of trypsin-activated recombinant human renin (final enzyme concentration of 0.2-2 nM) in assay buffer is added, and the solution is mixed by pipetting. The increase in fluorescence at 495 nm (excitation at 340 nm) is measured for 60-360 min at rt using a Perkin-Elmer Fusion microplate reader. The slope of a linear portion of the plot of fluorescence increase as a function of time is then determined, and the rate is used for calculating percent inhibition in relation to uninhibited control. […] The IC50 is defined as the concentration of a particular inhibitor that reduces the formation of product by 50% relative to a control sample containing no inhibitor. (Wang G. T. et al. Anal. Biochem. 1993, 210, 351; Nakamura, N. et al. J. Biochem. (Toko) 1991, 109, 741; Murakaini, K. et al. Anal Biochem. 1981, 110, 232).

IC50: 113 nM
Compound: CCCCNC(=O)C[C@H](O)[C@H](CC1CCCCC1)NC(=O)N1CCC[C@@H]([C@@H](OCCNC(=O)OC)c2cccc(Cl)c2)C1 [Example 1, methyl 2-((R)-((R)-1-((2S,3S)-5-(butylamino)-1-cyclohexyl-3-hydroxy-5-oxopentan-2-ylcarbamoyl)piperidin-3-yl)(3-chlorophenyl)methoxy)ethylcarbamate]
